This test deals with Mycobacterium tuberculosis H37Rv growth inhibition, no glycerol. The test can be described thus: Mycobacterium tuberculosis H37Rv growth inhibition, no glycerol, confirmatory dose response (AID 449764).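 For all read-outs here: growth read after 7 days of incubation.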 The following applies: for IC90: measured here: IC90 growth inhibition.

This note sets out measurements from PubChem BioAssay AID449764 (Southern Research Specialized Biocontainment Screening …, 2010).

As to `COCC(=O)O[C@]1(CCN(C)CCCc2nc3ccccc3[nH]2)CCc2cc(F)ccc2[C@@H]1C(C)C`, the IC50 is 45.4 µM and the IC90 was 53.2 µM.
In the same order, the values of `O=c1cc(-c2ccccc2Cl)oc2ccc([N+](=O)[O-])c(O)c12` are 21.4 µM and 28.2 µM.
Regarding `Cn1cccc1/C=C1/C(=O)NC(=S)N(Cc2ccc(F)cc2)C1=O`, the IC90 was more than 100 µM.
For the compound `CCn1c2ccccc2c2cc(CNCc3ccc(OC)cc3OC)ccc21`, the half-inhibitory concentration (IC50) was 12.2 µM and the IC90 came out at 14 µM.
Compound `COC(=O)c1ccc(CSc2nc(C(F)(F)F)c3c(c2C#N)CCC3)o1` displayed an IC90 of more than 100 µM.
`CCN1CSC(=S)N(Cc2ccccc2)C1`: the half-inhibitory concentration (IC50) is 32.5 µM and the concentration for an effect of 90% (IC90) was 60.7 µM.
The like results for `CC(=O)Nc1ccc(N2C(C(C)=O)=NN(c3ccc(Cl)cc3)C2c2sccc2C)cc1` (stereo not drawn) were, in that order, 66.6 µM and 83.9 µM.
In the same order, the values of `CO[C@@H]1[C@@H](OC(N)=O)[C@@H](O)C(Oc2ccc3c(O)c(NC(=O)c4ccc(O)c(CC=C(C)C)c4)c(=O)oc3c2C)OC1(C)C` (stereo partly drawn) are 9.33 µM and 14.5 µM.
In turn, `CCCCNc1nc(N(C)c2ccccc2)nc(-n2ccnc2)n1` yielded an IC90 of more than 100 µM.
With `O=C(/C=C/c1ccccc1)N1CCN(CCN2C(=O)c3cccc4cccc(c34)C2=O)CC1`, the half-maximal inhibitory concentration (IC50) was 2.44 µM and the concentration for an effect of 90% (IC90) is 3.96 µM.
The like results for `Cc1ccc(C)c(-c2nn(-c3cc(N4CCN(CCO)CC4)ccc3[N+](=O)[O-])c(=O)c3ccccc23)c1` were, in that order, 22.6 µM and 25.7 µM.
The like results for `C=CCNCC(=O)N1N=C(c2ccc3ccccc3c2)CC1c1ccc(OC)cc1` (stereo not drawn) were, in that order, 18.4 µM and 23.3 µM.
The like results for `CCCOc1ccc2c(c1)C(=NN=C(N)N)c1cc(OCCC)ccc1-2` were, in that order, 11.1 µM and 18.1 µM.
Take `CCOC(=O)C1CCN(C(=O)CSCc2nc(-c3ccc(OCC)cc3)oc2C)CC1`: the IC50 is 46 µM and the concentration for an effect of 90% (IC90) is 49.2 µM.
On to `Cc1cccc(C)c1OCCCCc1c(C)n[nH]c1C`, for which the IC50 is 17.7 µM and the concentration for an effect of 90% (IC90) is more than 100 µM.
In the same order, the values of `COC(=O)c1ccc(NC(=O)CSc2nc3ccc(N4C(=O)C5C6C=CC(C6)C5C4=O)cc3s2)cc1` (stereo not drawn) are 4.89 µM and 6.03 µM.
For the compound `Cn1c(CNc2nc(-c3ccccc3)cs2)nnc1SCC(=O)OC1CCCCC1`, the IC50 is 24 µM and the concentration for an effect of 90% (IC90) was 27.3 µM.
For the compound `O=C(c1cccc(-c2ccco2)c1)N1CCCC(N2CCN(c3ccc(F)cc3)CC2)C1` (stereo not drawn), the IC50 is 74.1 µM and the IC90 worked out at 95 µM.
The like results for `Cc1onc(-c2c(F)cccc2Cl)c1C(=O)O/N=C(\N)c1ccc([N+](=O)[O-])o1` were, in that order, 14.4 µM and 27.6 µM.
In the same order, the values of `Cc1ccc(O)c(C(=O)CC(=O)c2ccccc2Cl)c1` are 17.9 µM and 27.3 µM.
The like results for `COc1ccc2c3n(nc2c1)CCN=C3c1cc(Cl)c(N)c(Cl)c1` were, in that order, 94.1 µM and 97.7 µM.
Take `COc1cc(NC(=O)C/C(C)=N/NC(=O)c2ccccn2)c(OC)cc1Cl`: the IC50 was 5.83 µM and the IC90 came out at 9.98 µM.
In the same order, the values of `O=C(NCC1CCN(c2ccc(S(=O)(=O)N3CCOCC3)cc2)CC1)c1ccc(Cl)cc1` are 40.6 µM and 57 µM.
The like results for `COc1c[nH]n(C2CCCCC2)c(=O)c1=O` were, in that order, 24.1 µM and 27.6 µM.
In the same order, the values of `CC1=C(/C=C/C(C)=C/C=C/C(C)=C/C(=O)Nc2ccc(O)cc2)C(C)(C)CCC1` are 44.2 µM and 64.7 µM.
On to `COc1ccc(-c2nnc3sc(C4CCCCC4)nn23)cc1OC`, for which the IC50 is 45.6 µM and the concentration for an effect of 90% (IC90) worked out at 51.6 µM.
In the same order, the values of `COc1cc(/C=C/C(=O)c2c(O)n(CCc3ccccc3)c(=O)[nH]c2=O)ccc1O` are 14.3 µM and 21.8 µM.
In the same order, the values of `Cc1ccnc(NC(=O)COc2ccc3c(c2)CCC3)c1` are 85.7 µM and more than 100 µM.
The like results for `COc1ccccc1C1CC(c2ccc(Cl)cc2)Nc2ncnn21` (stereo not drawn) were, in that order, 22.7 µM and 30.7 µM.
As for `CCc1ccc2nc(N3C(=O)C(O)=C(C(=O)c4ccco4)C3c3cccs3)sc2c1` (stereo not drawn), the IC50 was 86.3 µM and the concentration for an effect of 90% (IC90) was 95.2 µM.
As to `CCCCC(=O)OCC(=O)N1N=C(c2c[nH]c3ccccc23)C(O)C1c1ccc(OC)cc1` (stereo not drawn), the concentration for half-maximal inhibition (IC50) is 22 µM and the IC90 turned out to be 25.1 µM.
The like results for `CCOC(=O)c1cc2cc3ccccc3cc2oc1=O` were, in that order, 84.8 µM and more than 100 µM.
Regarding `C[Se]C[C@@H](N)C(=O)O`, the half-inhibitory concentration (IC50) was 89.4 µM and the concentration for an effect of 90% (IC90) amounted to 95.7 µM.
The like results for `COc1ccc(-n2nc3c(c2NC(=O)CCl)CSC3)cc1` were, in that order, 6.92 µM and 12.5 µM.
Regarding `CCOC(=O)Oc1c(OC)cc(C(=O)O[C@@H]2C[C@@H]3CN4CCc5c([nH]c6cc(OC)ccc56)[C@H]4C[C@@H]3[C@H](C(=O)OC)[C@H]2OC)cc1OC`, the IC50 is 26.5 µM and the 90% effect concentration (IC90) was 39.1 µM.
In the same order, the values of `OC(CNCCc1ccc(C(F)(F)F)cc1)COC(c1ccccc1)c1ccccc1` (stereo not drawn) are 19.7 µM and 23.1 µM.
As for `O=c1c(O)c(-c2cccs2)oc2ccccc12`, the half-maximal inhibitory concentration (IC50) was 34.4 µM and the IC90 was more than 100 µM.
In the same order, the values of `Cc1c(CN2CCC(CO)(Cc3cccc(C(F)(F)F)c3)CC2)c2ccccc2n1C` are 31.2 µM and 39.6 µM.
The like results for `C/C(=N\NC(=S)Nc1cccc(C)c1)c1cccc(N)c1` were, in that order, 21.6 µM and 23.7 µM.
Take `O=[N+]([O-])c1ccc(Sc2cc[n+]([O-])c3ccccc23)c([N+](=O)[O-])c1`: the IC50 is 40.5 µM and the IC90 amounted to 56.1 µM.
In the same order, the values of `CC(=O)Nc1ccc(S(=O)(=O)Nc2ccc(N3CCCCC3)cc2)cc1` are 12.4 µM and 15.9 µM.
The like results for `Cn1c(CNc2ccccc2O)nc2ccccc21` were, in that order, 3.05 µM and 3.36 µM.
Compound `COC(=O)[C@@H](NC(=O)O[C@@H]1C(=O)c2ccc(OC)cc2O[C@H]1c1cccc(C(F)(F)F)c1)C(C)C` came in with an IC90 of more than 100 µM.
Consider `O=C(NCCc1ccccc1)[C@@H]1CC=C[C@@H]2CCN(Cc3ccc(Cl)c(Cl)c3)C(=O)[C@@H]21`, for which the IC50 is 63.8 µM and the 90% effect concentration (IC90) came out at 85.5 µM.
The like results for `CON(C)c1nc(C2CCCCC2)c2cc(C)ccc2n1` were, in that order, 57.4 µM and 68.2 µM.
Consider `O=[N+]([O-])c1ccc(O)c(-c2cc(C(F)(F)F)nc(-c3ccccc3)n2)c1`, for which the IC50 was 20.4 µM and the IC90 is 22.1 µM.
In the same order, the values of `O=C(Nc1cc(N2CCOCC2)ncn1)NC1(C(F)(F)F)Oc2ccc(Cl)cc2O1` (stereo not drawn) are 23.6 µM and 26.9 µM.
The like results for `COCc1cc(=O)[nH]c(Nc2nc3ccccc3o2)n1` were, in that order, 26.4 µM and 48 µM.
The like results for `O=c1[nH]c(CSc2cccc[n+]2[O-])nc2ccccc12` were, in that order, 89.1 µM and 99.6 µM.
Take `CC1CC(C)(C)Nc2ccc(OC(=O)c3ccco3)cc21` (stereo not drawn): the concentration for half-maximal inhibition (IC50) was 21.7 µM and the concentration for an effect of 90% (IC90) is 29.5 µM.
In the same order, the values of `COC(=O)CSc1nnc(-c2sc3cc(OC)ccc3c2Cl)n1C` are 35.8 µM and more than 50 µM.
The like results for `O=C(Oc1ccc2ccccc2c1)c1cncc(Br)c1` were, in that order, 55.3 µM and more than 100 µM.
On to `Cc1ccccc1Nc1nc(N)nc(COC(=O)c2ccc([N+](=O)[O-])o2)n1`, for which the IC50 is 88.7 µM and the 90% effect concentration (IC90) is more than 100 µM.
With `Cc1ccc(C2CC(c3cccs3)=NN2C(=O)CCl)cc1` (stereo not drawn), the IC50 was 1.42 µM and the IC90 was 1.77 µM.
With `COC(=O)C1C2c3ccccc3OC1(C)N=c1s/c(=C/c3cnn(C)c3C)c(=O)n12` (stereo not drawn), the half-inhibitory concentration (IC50) was 6.44 µM and the IC90 turned out to be 41.1 µM.
In the same order, the values of `O=c1cc(O)c2sc3nc(-c4cccnc4)cc(C(F)(F)F)c3c2[nH]1` are 39.8 µM and more than 100 µM.
Consider `Cc1nn2c(NCc3ccccn3)cc(C(C)C)nc2c1-c1ccccc1`, for which the IC50 was 2.85 µM and the IC90 came out at 3.23 µM.
With `Cc1ccc(Cl)cc1N1CCN(C(=O)C2CCC(=O)N(C3CCCCCC3)C2)CC1` (stereo not drawn), the 50% inhibitory concentration (IC50) is 28.7 µM and the concentration for an effect of 90% (IC90) amounted to 40.4 µM.
Take `CCCCN(CCCC)CCC(O)c1cc2c(Cl)cc(Cl)cc2c2cc(C(F)(F)F)ccc12` (stereo not drawn): the half-maximal inhibitory concentration (IC50) was 17.6 µM and the IC90 came to 23.4 µM.
The like results for `CCCCCCCCSc1nnc(CSc2nc3nc(C)cc(C)n3n2)o1` were, in that order, 2.63 µM and 6.27 µM.
The like results for `c1ccc(-c2nccc(-c3ccc(-n4cnc5ccccc54)cc3)n2)nc1` were, in that order, 19 µM and 23.7 µM.
The like results for `CC(C)(Oc1ccc(Cl)cc1)C(=O)OCC(=O)N1CCN(c2ccccc2)CC1` were, in that order, 52 µM and 80.9 µM.
Consider `CCN1CCN(Cc2ccc(NC(=O)c3cc(NC(=O)c4cncc(-c5cccs5)c4)cc(OC)c3)cc2C(F)(F)F)CC1`, for which the IC50 is 10.3 µM and the 90% effect concentration (IC90) is 16.5 µM.
In the same order, the values of `Cc1oc(C(=O)Nc2ccc(O)cc2)cc1COc1ccccc1` are 15.2 µM and 35.1 µM.
As for `Fc1ccc2[nH]c3c(NCc4ccccc4)ncnc3c2c1`, the IC50 was 23.8 µM and the IC90 is 27 µM.
As to `COc1cccc2c1C(CO)N1C(C#N)C3CC(C(=O)O)C(C1C2)N3C` (stereo not drawn), the IC50 was 2.71 µM and the IC90 turned out to be 3 µM.
In the same order, the values of `O=C(Nc1nnc(-c2ccccc2Cl)o1)c1nc2ccccc2s1` are 6.33 µM and 7.21 µM.
Consider `O=c1cc(/C=C/c2ccccc2)oc2ccccc12`, for which the IC50 is 97.6 µM and the 90% effect concentration (IC90) is more than 100 µM.
In the same order, the values of `CCOC(=O)COc1ccc2c(c1)C(=O)CC(C)(c1cccnc1)O2` (stereo not drawn) are 13.4 µM and 32.5 µM.
The like results for `COC(=O)/C(=C1/Oc2cc(C)oc(=O)c2S1)C(F)(F)F` were, in that order, 26 µM and more than 100 µM.
In the same order, the values of `N#Cc1nccnc1S(=O)(=O)c1cccs1` are 59.3 µM and 73.3 µM.
